Laboratory results reported in ChEMBL document CHEMBL5143721, “Novel Hydroxychalcone-Based Dual Inhibitors of Aldose Reductase and α-Glucosidase as Potential Therapeutic Agents against Diabetes Mellitus and Its Complications” (J Med Chem, 2022).

Tests used:
[1] = Inhibition of Wistar rat lens ALR2 using D,L-glyceraldehyde as substrate preincubated for 10 mins in presence of NADPH followed by substrate addition and measured after 4 mins; type: tissue-based
[2] = Inhibition of Wistar rat kidney ALR1 using sodium D-glucuronate as substrate preincubated for 10 mins in presence of NADPH followed by substrate addition and measured after 4 mins; type: tissue-based
[3] = Antioxidant activity assessed as DPPH radical scavenging activity at 100 uM incubated for 30 mins by DPPH assay relative to control; type: functional
[4] = Inhibition of Saccharomyces cerevisiae Alpha-glucosidase using p-nitrophenyl glucopyranoside as substrate preincubated for 5 mins followed by substrate addition and measured for 30 mins
Rattus norvegicus = species on record: Rattus norvegicus; assay: Selectivity index, ratio of IC50 for Wistar rat kidney ALR1 to IC50 for Wistar rat lens ALR2
[5] = Antioxidant activity assessed as DPPH radical scavenging activity at 50 uM incubated for 30 mins by DPPH assay relative to control; type: functional
[6] = Antioxidant activity assessed as DPPH radical scavenging activity at 10 uM incubated for 30 mins by DPPH assay relative to control; type: functional
Brain [7] = assay: Antioxidant activity in rat brain homogenate assessed as inhibition of lipid peroxidation by measuring MDA concentration at 100 uM by TBARS assay relative to control; type: functional, tissue-based; parameters: scale not given: the % may be the effect or the level left
Brain [8] = assay: Antioxidant activity in rat brain homogenate assessed as inhibition of lipid peroxidation by measuring MDA concentration at 50 uM by TBARS assay relative to control; type: functional, tissue-based; parameters: scale not given: the % may be the effect or the level left
[9] = Octanol/buffer distribution coefficient, log D of compound at pH 7.4 incubated for 24 hrs by shake flask based HPLC method; type: physicochemical

Row | SMILES | IC50 [1] | IC50 [2] | IC50 [4] | Ratio IC50 (Rattus norvegicus) | logD at 24 h [9] | Activity [3] | Activity [5] | Activity [6] | Activity (Brain [7]) | Activity (Brain [8])
1 | CC(C)=CCn1c(=O)oc2c(C(=O)/C=C/c3cc(F)c(O)c(F)c3)cccc21 | 0.097 µM | 4.75 µM | 59.9 µM | 49 | 1.13 | 52.9% | 35% | 9.1% | 38.3% | 25.9%
2 | O=C(/C=C/c1cc(F)c(O)c(F)c1)c1cccc2[nH]c(=O)oc12 | 0.491 µM | 1.41 µM | 107 µM | 2.87 |  |  |  |  |  | 
3 | COC(=O)Cn1c(=O)oc2cc(/C=C/c3ccc(O)cc3)ccc21 | 72.2 µM |  |  |  |  |  |  |  |  | 
4 | COc1ccc(/C=C/C(=O)c2cccc3[nH]c(=O)oc23)cc1 | > 100 µM | > 100 µM |  |  |  |  |  |  |  | 
5 | O=C(/C=C/c1cccc(O)c1)c1cccc2[nH]c(=O)oc12 | > 100 µM | > 100 µM |  |  |  |  |  |  |  | 
6 | COC(=O)Cn1c(=O)oc2c(C(=O)/C=C/c3cc(F)c(O)c(F)c3)cccc21 | 0.111 µM | 7.84 µM | 71.2 µM | 70.7 | 1.07 | 52.9% | 35% | 9.1% | 28% | 20.9%
7 | COc1cc(O)ccc1/C=C/C(=O)c1cccc2[nH]c(=O)oc12 | 16.7 µM | > 100 µM |  | > 5.98 |  |  |  |  |  | 
8 | O=C(/C=C/c1ccc(O)cc1)c1cccc2[nH]c(=O)oc12 | 2.85 µM | > 100 µM | 104 µM | > 35.1 |  |  |  |  |  | 
9 | O=c1[nH]c2cccc(/C=C/c3ccc(O)cc3)c2o1 | 495 µM |  |  |  |  |  |  |  |  | 
10 | O=C(/C=C/c1ccc(O)c(C(F)(F)F)c1)c1cccc2[nH]c(=O)oc12 | > 100 µM | > 100 µM |  |  |  |  |  |  |  | 
11 | O=C(/C=C/c1ccc(O)c(O)c1)c1cccc2[nH]c(=O)oc12 | 3.54 µM | 2.12 µM | 63.7 µM | 0.595 |  |  |  |  |  | 
12 | COc1cc(/C=C/C(=O)c2cccc3[nH]c(=O)oc23)ccc1O | > 100 µM | > 100 µM |  |  |  |  |  |  |  | 
13 | O=C(/C=C/c1ccc(O)c(F)c1)c1cccc2[nH]c(=O)oc12 | 3.74 µM | 3.75 µM | 105 µM | 1.19 |  |  |  |  |  | 
14 | O=C(/C=C/c1ccc(O)c(Cl)c1)c1cccc2[nH]c(=O)oc12 | > 100 µM | > 100 µM |  |  |  |  |  |  |  | 
15 | COC(=O)Cn1c(=O)oc2ccc(/C=C/c3ccc(O)cc3)cc21 | > 100 µM |  |  |  |  |  |  |  |  | 

Second part, led by results:

Row | IC50 [1] | IC50 [2] | IC50 [4] | Ratio IC50 (Rattus norvegicus) | logD at 24 h [9] | SMILES | Activity [3] | Activity [5] | Activity [6] | Activity (Brain [7]) | Activity (Brain [8])
16 | > 100 µM | > 100 µM |  |  |  | COC(=O)Cn1c(=O)oc2c(C(=O)/C=C/c3ccc(OC)cc3)cccc21 |  |  |  |  | 
17 | 0.518 µM | > 100 µM | 57.2 µM | > 193 | 1.31 | COC(=O)Cn1c(=O)oc2c(C(=O)/C=C/c3ccc(O)c(F)c3)cccc21 | 40.1% | 19.2% | 5.09% | 40.1% | 25.4%
18 | 0.201 µM | > 100 µM | 41.5 µM | > 498 | 1.65 | CC(C)=CCn1c(=O)oc2c(C(=O)/C=C/c3ccc(O)cc3)cccc21 | 39.1% | 18.3% | 7.1% | 38.7% | 27%
19 | 0.826 µM | > 100 µM |  | > 121 |  | COC(=O)Cn1c(=O)oc2c(C(=O)/C=C/c3ccc(O)cc3OC)cccc21 |  |  |  |  | 
20 | 12.2 µM | > 100 µM |  | > 8.82 |  | COC(=O)Cn1c(=O)oc2c(C(=O)/C=C/c3ccc(O)c(Cl)c3)cccc21 |  |  |  |  | 
21 | 56.1 µM | > 100 µM |  | > 1.78 |  | COC(=O)Cn1c(=O)oc2c(C(=O)/C=C/c3ccc(O)c(C(F)(F)F)c3)cccc21 |  |  |  |  | 
22 | > 100 µM | > 100 µM |  |  |  | COC(=O)Cn1c(=O)oc2c(C(=O)/C=C/c3cccc(O)c3)cccc21 |  |  |  |  | 
23 | 11.7 µM |  |  |  |  | COC(=O)Cn1c(=O)oc2c(/C=C/c3ccc(O)cc3)cccc21 |  |  |  |  | 
